The record followed here is patent US11932600B2, “Biaryl derivative” (DAIICHI SANKYO COMPANY, LIMITED, priority 2018, dated 2024).

The structures appear in SMILES notation.

In the first test the target is T1, human TNAP (Homo sapiens, UniProt P05186).
T1 construct: host or cells: COS1 cells, concentrated and dialyzed culture supernatant
T1 sequence (P05186 18-502 limits assumed): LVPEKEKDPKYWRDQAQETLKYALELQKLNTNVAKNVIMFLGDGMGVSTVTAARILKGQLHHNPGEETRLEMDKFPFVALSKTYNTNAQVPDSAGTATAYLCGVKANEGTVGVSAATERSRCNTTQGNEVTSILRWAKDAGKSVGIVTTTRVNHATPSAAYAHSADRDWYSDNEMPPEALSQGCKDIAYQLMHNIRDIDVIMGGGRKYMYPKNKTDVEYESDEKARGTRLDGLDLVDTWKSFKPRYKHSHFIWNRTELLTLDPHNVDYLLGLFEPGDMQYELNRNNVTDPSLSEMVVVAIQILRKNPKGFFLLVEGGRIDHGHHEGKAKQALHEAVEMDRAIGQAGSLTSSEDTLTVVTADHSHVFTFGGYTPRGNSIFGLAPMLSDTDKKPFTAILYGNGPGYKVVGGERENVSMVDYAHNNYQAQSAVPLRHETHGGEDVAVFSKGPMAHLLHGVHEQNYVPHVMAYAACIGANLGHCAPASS
In words: Inhibitory test of TNAP activity (pNPP substrate, p-nitrophenol production). It counts as biochemical. To be noted: human TNAP from culture supernatant of transfected COS1 cells, 60 minutes at room temperature, ABS 405 nm. As for the experimental part:
<Test Examples> (Test Example 1) Inhibitory Test of TNAP Activity
COS1 cells (DS Pharma Biomedical Co., Ltd.) were transfected with human TNAP (OriGene Technologies, Inc.) using Lipofectamine LTX & Plus reagent (Invitrogen Corp.). On the next day, the medium was replaced with a fresh medium, and the cells were cultured in an incubator for 3 days. After 3 days, the culture supernatant was collected and concentrated by centrifugation at 5000 G for 30 minutes using Amicon 14, 10^4 cut (Merck Millipore). The concentrated culture supernatant was dialyzed against 5 L of 50 mM Tris/200 mM NaCl/1 mM MgCl2/20 μM ZnCl2 twice and used as an enzyme source (enzyme solution). The substrate pNPP (ProteoChem Inc.) was adjusted to 3.1 mM with Milli-Q water, and a solution of each test compound dissolved in dimethyl sulfoxide (DMSO; Wako Pure Chemical Industries, Ltd.) by 6 serial dilutions at a 5-fold common ratio from 100 μM or DMSO was added thereto at a final concentration of 1% by volume. The enzyme solution adjusted to 2 μg/mL with an assay buffer (200 mM Tris/2 mM MgCl2/0.04 mM ZnCl2/0.01% Tween 20) was added in the same amount of the substrate solution and incubated at room temperature for 60 minutes. Then, the absorbance (ABS: 405 nm) was measured using a microplate reader (model plus 384, Molecular Devices, LLC), and the concentration of produced p-nitrophenol was calculated.
For the molecule `CC(C)Oc1cncc(S(=O)(=O)Nc2c(F)cc(Cl)cc2-c2ccc(OC(C)(C)C(=O)O)cc2)c1` [Example 26, 2-{[5′-Chloro-3′-fluoro-2′-({5-[(propan-2-yl)oxy]pyridine-3-sulfonyl}amino)[1,1′-biphenyl]-4-yl]oxy}-2-methylpropanoic acid], the midpoint of inhibition, the IC50, lay at 0.19 nM.
Same read-out and setting: under `Cc1cncc(S(=O)(=O)Nc2c(Cl)cc(Cl)cc2-c2ccc(OCC(=O)O)cc2)c1` [Example 15, ({3′,5′-Dichloro-2′-[(5-methylpyridine-3-sulfonyl)amino][1,1′-biphenyl]-4-yl}oxy)acetic acid] stands 0.9 nM.
Still for that read-out and setting: with `Cc1cncc(S(=O)(=O)Nc2c(F)cc(Cl)cc2-c2ccc(CC(=O)O)cc2)c1C` [Example 12, {5′-Chloro-2′-[(4,5-dimethylpyridine-3-sulfonyl)amino]-3′-fluoro[1,1′-biphenyl]-4-yl}acetic acid] the figure was 0.1 nM.
On to `CCc1cncc(S(=O)(=O)Nc2c(F)cc(Cl)cc2-c2ccc(OC(C)(C)C(=O)O)cc2)c1` [Example 7, 2-({5′-Chloro-2′-[(5-ethylpyridine-3-sulfonyl)amino]-3′-fluoro[1,1′-biphenyl]-4-yl}oxy)-2-methylpropanoic acid], for which half-maximal inhibition (IC50) required 0.15 nM.
Still for that read-out and setting: with `CCc1ccncc1S(=O)(=O)Nc1c(F)cc(Cl)cc1-c1ccc(OC(C)(C)C(=O)O)cc1` [Example 24, 2-({5′-Chloro-2′-[(4-ethylpyridine-3-sulfonyl)amino]-3′-fluoro[1,1′-biphenyl]-4-yl}oxy)-2-methylpropanoic acid] the figure was 0.2 nM; with `CC(C)(Oc1ccc(-c2cc(Cl)cc(Cl)c2NS(=O)(=O)c2cccnc2)cc1)C(=O)O` [Example 14, 2-({3′,5′-Dichloro-2′-[(pyridine-3-sulfonyl)amino][1,1′-biphenyl]-4-yl}oxy)-2-methylpropanoic acid], 2.6 nM.
On the same count and under the same terms, with `COc1cncc(S(=O)(=O)Nc2c(Cl)cc(Cl)cc2-c2ccc(C(F)(F)C(=O)O)cc2)c1` [Example 20, {3′,5′-Dichloro-2′-[(5-methoxypyridine-3-sulfonyl)amino][1,1′-biphenyl]-4-yl}(difluoro)acetic acid] the figure was 0.36 nM.
Same read-out and setting: under `Cc1ncncc1S(=O)(=O)Nc1c(F)cc(Cl)cc1-c1ccc(OC(C)(C)C(=O)O)cc1` [Example 23, 2-({5′-Chloro-3′-fluoro-2′-[(4-methylpyrimidine-5-sulfonyl)amino][1,1′-biphenyl]-4-yl}oxy)-2-methylpropanoic acid] stands 2.4 nM; under `CC(Oc1ccc(-c2cc(Cl)cc(Cl)c2NS(=O)(=O)c2cccnc2)cc1)C(=O)O` (stereo not shown) [Example 13, 2-({3′,5′-Dichloro-2′-[(pyridine-3-sulfonyl)amino][1,1′-biphenyl]-4-yl}oxy)propanoic acid], 3.5 nM; under `COc1cncc(S(=O)(=O)Nc2c(Cl)cc(Cl)cc2-c2ccc(S(C)(=O)=O)c(F)c2)c1` [Example 21, N-[3,5-Dichloro-3′-fluoro-4′-(methanesulfonyl)[1,1′-biphenyl]-2-yl]-5-methoxypyridine-3-sulfonamide], 1.2 nM.
`Cc1cncc(S(=O)(=O)Nc2c(F)cc(Cl)cc2-c2ccc(C(C)C(=O)O)cc2)c1` (racemic) [Example 32, 2-{5′-Chloro-3′-fluoro-2′-[(5-methylpyridine-3-sulfonyl)amino][1,1′-biphenyl]-4-yl}propanoic acid] gave an IC50 of 0.17 nM.
Still for that read-out and setting: under `O=C(O)COc1ccc(-c2cc(Cl)cc(Cl)c2NS(=O)(=O)c2cccnc2)cc1` [Example 1, ({3′,5′-Dichloro-2′-[(pyridine-3-sulfonyl)amino][1,1′-biphenyl]-4-yl}oxy)acetic acid] stands 5.5 nM.
Still for that read-out and setting: under `COc1cncc(S(=O)(=O)Nc2c(F)cc(Cl)cc2-c2ccc(OC(C)(C)C(=O)O)cc2)c1` [Example 18, 2-({5′-Chloro-3′-fluoro-2′-[(5-methoxypyridine-3-sulfonyl)amino][1,1′-biphenyl]-4-yl}oxy)-2-methylpropanoic acid] stands 0.23 nM.
Still for that read-out and setting: with `Cc1cncc(S(=O)(=O)Nc2c(F)cc(Cl)cc2-c2ccc(OCC(=O)O)cc2)c1` [Example 17, ({5′-Chloro-3′-fluoro-2′-[(5-methylpyridine-3-sulfonyl)amino][1,1′-biphenyl]-4-yl}oxy)acetic acid] the figure was 0.3 nM.
Turning to `Cc1cncc(S(=O)(=O)Nc2c(F)cc(Cl)cc2-c2ccc(OC(C)(C)C(=O)O)c(F)c2)c1` [Example 27, 2-({5′-Chloro-3,3′-difluoro-2′-[(5-methylpyridine-3-sulfonyl)amino][1,1′-biphenyl]-4-yl}oxy)-2-methylpropanoic acid], half-maximal inhibition (IC50) was put at 0.68 nM.
Still for that read-out and setting: under `CC(C)(Oc1ccc(-c2cc(Cl)cc(F)c2NS(=O)(=O)c2cncc(S(C)(=O)=O)c2)cc1)C(=O)O` [Example 28, 2-[(5′-Chloro-3′-fluoro-2′-{[5-(methanesulfonyl)pyridine-3-sulfonyl]amino}[1,1′-biphenyl]-4-yl)oxy]-2-methylpropanoic acid] stands 2.6 nM; under `O=C(O)COc1ccc(-c2cc(Cl)cc(F)c2NS(=O)(=O)c2cccnc2)cc1` [Example 16, ({5′-Chloro-3′-fluoro-2′-[(pyridine-3-sulfonyl)amino][1,1′-biphenyl]-4-yl}oxy)acetic acid], 2.4 nM; under `COc1cncc(S(=O)(=O)Nc2c(Cl)cc(Cl)cc2-c2ccc(CC(=O)O)cc2)c1` [Example 22, {3′,5′-Dichloro-2′-[(5-methoxypyridine-3-sulfonyl)amino][1,1′-biphenyl]-4-yl}acetic acid], 0.28 nM.
The same measure, in the same setting: with `COc1ccncc1S(=O)(=O)Nc1c(F)cc(Cl)cc1-c1ccc(OC(C)(C)C(=O)O)cc1` [Example 25, 2-({5′-Chloro-3′-fluoro-2′-[(4-methoxypyridine-3-sulfonyl)amino][1,1′-biphenyl]-4-yl}oxy)-2-methylpropanoic acid] the figure was 0.41 nM.
Same read-out and setting: with `Cc1cncc(S(=O)(=O)Nc2c(Cl)cc(Cl)cc2-c2ccc(OC(C)(C)C(=O)O)cc2)c1` [Example 2, 2-({3′,5′-Dichloro-2′-[(5-methylpyridine-3-sulfonyl)amino][1,1′-biphenyl]-4-yl}oxy)-2-methylpropanoic acid] the figure was 0.5 nM; with `COc1cncc(S(=O)(=O)Nc2c(Cl)cc(Cl)cc2-c2ccc(OC(C)C(=O)O)cc2)c1` (stereo not shown) [Example 19, 2-({3′,5′-Dichloro-2′-[(5-methoxypyridine-3-sulfonyl)amino][1,1′-biphenyl]-4-yl}oxy)propanoic acid], 0.49 nM.
Molecule `CCC(C(=O)O)c1ccc(-c2cc(Cl)cc(F)c2NS(=O)(=O)c2cncc(C)c2)cc1` (stereo not shown) [Example 33, 2-{5′-Chloro-3′-fluoro-2′-[(5-methylpyridine-3-sulfonyl)amino][1,1′-biphenyl]-4-yl}butanoic acid] returned an IC50 of 0.14 nM.

The test system of the next test is plasma ALP (80-90% containing TNAP). As to the kind of experiment: Inhibitory test of plasma TNAP activity in B6 mouse. To be noted: 0.3 mg/kg orally in 0.5% methylcellulose, average inhibition from 0 hour to 6 hours after administration, activity before administration = 100%. It counts as in vivo. As for the experimental part: (Test Example 3) Inhibitory Test of Plasma TNAP Activity in B6 Mouse (Charles River Laboratories Japan, Inc.)
After blood sampling from the tail vein using a heparin-treated hematocrit capillary tube (EM Meister Hematocrit Capillary Tube, AS ONE Corp.) (as the sample before compound administration), each test compound suspended in a 0.5% methylcellulose solution (powder purchased from Wako Pure Chemical Industries, Ltd. was adjusted to 0.5% with Otsuka distilled water) was administered orally to the mouse (0.3 mg/kg). 1, 2, 4, 6, and 24 hours after the administration, blood was collected from the tail vein using a heparin-treated hematocrit capillary tube to obtain a plasma sample. The plasma sample was added to an assay buffer (1 M Tris, 1 M MgCl2, 20 mM ZnCl2, and water, pH 7.5), and the mixture was left standing for 5 minutes. Then, the absorbance at 405 nm was measured and used as a blank. The substrate pNPP was added to the plasma sample and incubated at room temperature for 180 minutes. Then, the absorbance (ABS: 405 nm) was measured using a microplate reader (model plus 384, Molecular Devices, LLC), and the concentration of produced p-nitrophenol was calculated. The blank was subtracted from all measurement values to calculate TNAP activity at each time point with the TNAP activity of the sample before compound administration defined as 100%.
It was calculated according to the following expression: 100−((plasma ALP activity at 0 hr+plasma ALP activity at 1 hr)*1/2+(plasma ALP activity at 1 hr+plasma ALP activity at 2 hr)*1/2+(plasma ALP activity at 2 hr+plasma ALP activity at 4 hr)*2/2+(plasma ALP activity at 4 hr+plasma ALP activity at 6 hr)*2/2)/6.
As to `Cc1cncc(S(=O)(=O)Nc2c(F)cc(Cl)cc2-c2ccc(CC(=O)O)cc2)c1C` [Example 12, {5′-Chloro-2′-[(4,5-dimethylpyridine-3-sulfonyl)amino]-3′-fluoro[1,1′-biphenyl]-4-yl}acetic acid], the “Plasma ALP Inhibition (6 h ave. inhibition %)” value is listed as 82.2%.
On the same count and under the same terms, under `CCc1cncc(S(=O)(=O)Nc2c(F)cc(Cl)cc2-c2ccc(OC(C)(C)C(=O)O)cc2)c1` [Example 7, 2-({5′-Chloro-2′-[(5-ethylpyridine-3-sulfonyl)amino]-3′-fluoro[1,1′-biphenyl]-4-yl}oxy)-2-methylpropanoic acid] stands 69.0%; under `Cc1cncc(S(=O)(=O)Nc2c(F)cc(Cl)cc2-c2ccc(CCC(=O)O)cc2)c1` [Example 4, 3-{5′-Chloro-3′-fluoro-2′-[(5-methylpyridine-3-sulfonyl)amino][1,1′-biphenyl]-4-yl}propanoic acid], 80.2%.

The IC50 is the point on the concentration scale where inhibition reaches its midpoint. High values mean lower potency, low ones higher potency.
